pEC50, pKi: −log10 of the molar value. “Also recorded” adds a separate entry of the source. Read-outs that look alike come from different tables or passages of the source.
Legend:
[1] = target: NOS; conditions: cited from earlier work
[2] = tested on: NOS protein; test: Western blot of NOS protein in brain extracts after i.p. administration; format: in vivo, rat; conditions: i.p. administration of 5 and 50 mg/kg
Experimental: To determine whether NO2 Arg administration alters levels of NOS protein, Western blot analysis of brain extracts were performed following the i.p. administration of both 5 and 50 mg/kg of NO2 Arg. Soluble cerebellar homogenates (100 μg) were separated on a 7.5% SDS-polyacrylamide gel and transferred to nitrocellulose. Lanes were incubated overnight with affinity purified NOS antibody (1:2500) at room temperature, and bands were visualized with an alkaline phosphatase linked secondary antibody. […] Therefore, the loss of NOS activity following peripheral administration of NO2 Arg is not attributed to inhibition of the synthesis of enzyme protein.

[3] = target: brain NOS (cerebellar NOS) (Rattus norvegicus, UniProt P29476); test: inhibition of NOS activity, conversion of [^3 H]arginine to [^3 H]citrulline, cerebellar homogenates/supernatants in vitro
brain NOS (cerebellar NOS), sequence (P29476 whole entry): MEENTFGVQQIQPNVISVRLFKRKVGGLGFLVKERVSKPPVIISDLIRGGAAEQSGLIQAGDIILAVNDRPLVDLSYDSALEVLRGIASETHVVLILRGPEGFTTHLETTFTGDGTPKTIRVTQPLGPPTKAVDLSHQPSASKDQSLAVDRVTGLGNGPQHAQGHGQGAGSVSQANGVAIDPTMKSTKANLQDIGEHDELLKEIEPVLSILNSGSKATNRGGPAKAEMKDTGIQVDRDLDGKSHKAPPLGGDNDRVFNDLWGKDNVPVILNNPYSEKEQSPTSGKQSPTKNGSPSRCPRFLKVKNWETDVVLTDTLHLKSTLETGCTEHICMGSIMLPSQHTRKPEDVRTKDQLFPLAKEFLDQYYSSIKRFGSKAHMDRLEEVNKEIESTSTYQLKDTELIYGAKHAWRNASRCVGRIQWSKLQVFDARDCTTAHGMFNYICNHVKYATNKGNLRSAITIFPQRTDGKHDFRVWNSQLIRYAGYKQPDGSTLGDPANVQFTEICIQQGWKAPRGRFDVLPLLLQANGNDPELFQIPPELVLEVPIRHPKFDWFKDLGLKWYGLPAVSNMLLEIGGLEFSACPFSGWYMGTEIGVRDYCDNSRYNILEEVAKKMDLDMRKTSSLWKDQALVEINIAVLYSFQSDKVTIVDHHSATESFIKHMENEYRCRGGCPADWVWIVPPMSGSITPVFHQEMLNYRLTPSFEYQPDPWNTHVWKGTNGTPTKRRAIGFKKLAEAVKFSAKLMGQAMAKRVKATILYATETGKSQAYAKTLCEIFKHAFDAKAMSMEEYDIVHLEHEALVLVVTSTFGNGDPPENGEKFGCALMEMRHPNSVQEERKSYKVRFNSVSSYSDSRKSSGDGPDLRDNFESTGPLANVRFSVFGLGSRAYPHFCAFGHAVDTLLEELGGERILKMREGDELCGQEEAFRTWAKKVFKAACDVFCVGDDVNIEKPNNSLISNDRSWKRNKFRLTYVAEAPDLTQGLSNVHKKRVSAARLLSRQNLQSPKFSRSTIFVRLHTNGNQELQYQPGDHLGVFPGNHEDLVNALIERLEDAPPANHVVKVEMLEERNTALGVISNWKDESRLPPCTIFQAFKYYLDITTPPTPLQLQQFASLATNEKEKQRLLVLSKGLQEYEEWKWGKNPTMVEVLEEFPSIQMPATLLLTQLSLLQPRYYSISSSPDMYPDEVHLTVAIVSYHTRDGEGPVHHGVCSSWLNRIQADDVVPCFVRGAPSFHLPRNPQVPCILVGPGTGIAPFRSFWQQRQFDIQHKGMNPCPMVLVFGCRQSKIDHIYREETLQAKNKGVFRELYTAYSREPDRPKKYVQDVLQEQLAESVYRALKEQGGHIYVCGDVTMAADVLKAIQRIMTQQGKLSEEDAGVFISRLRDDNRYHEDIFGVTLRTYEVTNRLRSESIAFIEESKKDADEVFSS
Text: Inhibitors of NOS are compounds which compete for the substrate binding site of NOS or other sites on the enzyme, and include both reversible and irreversible inhibitors. The present invention contemplates the use of any physiologically acceptable inhibitor which inhibits NOS activity. The effectiveness of a compound, and its relative potency as an NOS inhibitor, can be tested and routinely determined by measuring inhibition of NOS activity by monitoring the conversion of arginine to citrulline by NOS in, for example, cerebellar homogenates. A reduction in citrulline formation indicates inhibitory activity of the compound. The percent reduction in citrulline formation, compared to the amount of citrulline formed in the absence of the compound being tested, indicates the potency of the compound as an NOS inhibitor.
Rat cerebella were homogenized in 10 vols. (w/v) […] Tris (pH 7.4), 2 mM EDTA. Homogenates were centrifuged at 10,000×g for 15 minutes at 4° C. Supernatant preparations were used in the enzyme assays. Cerebellar tissue was dialyzed (Spectra/Por, 10,000 MWCO, EDTA-treated cellulose dialysis tubing) against 20 mM Tris (pH 7.4), 2 mM EDTA (300 ml×2) for 24 hours at 4° C.
Cerebellar homogenates were incubated with arginine derivatives for one hour at 4° C., and dialyzed overnight. Aliquots (25 μg protein) were assayed for NOS activity before and after dialysis.
NOS activity was measured by monitoring the conversion of [^3 H]arginine to [^3 H]citrulline as described by Bredt and Snyder (Proc. Natl. Acad. Sci USA (1990) 87682-685). Briefly, enzyme assays contained 25 μl of soluble tissue, 50 μl of […] [^3 H]arginine and 1 mM NADPH, and 25 μl of 3 mM CaCl2. After a 15 minute incubation at room temperature, the assays were terminated with 3 ml of 20 mM Hepes (pH 5.5) with 2 mM EDTA, and were applied to 0.5 ml columns of Dowex AG50WX8 (Na^+ form). [^3 H]citrulline was quantified by liquid scintillation spectroscopy of the 3 ml flow-through.
Accordingly, the effects of 2, 4 and 24 hours of preincubations of cerebellar supernatants (FIG. 2A) and activated macrophage homogenates (FIG. 2B) with NO2 Arg were examined. The preincubation was conducted at 4° C. since NOS is unstable at higher temperature for long periods of time. Enzymatic incubation was conducted for only 5 minutes to minimize any reaction of the inhibitor with the enzyme in the course of the incubation procedure.
Cerebellar supernatants were made as described in Example 1.

[4] = tested on: cortical cell cultures; test: cells; format: cell-based, rat; conditions: for pEC50: cortical cultures
Experimental: Primary dissociated cell cultures were prepared from fetal rats (13-to 14-day gestation for cortex and caudate-putamen cultures and 19- to 20-day gestation for hippocampal cultures). The tissue of interest was dissected, incubated for 15 minutes in 0.027% trypsin in Brooks-Logan solution (5% phosphate-buffered saline/0.04M sucrose/10 mM Hepes/0.03M glucose, pH 7.4), and then transferred to modified Eagle's medium (MEM) 10% horse serum/10% fetal bovine serum/2 mM glutamine for trituration. Dissociated cells were plated at a density of 3-4×10^5 cells per well in polyornithine-coated 15-mm multiwell plates. After 4 days the cells were treated with 10 μg of 5-fluoro-2'-deoxyuridine to prevent proliferations of noneuronal cells. Cells were maintained in MEM/5% horse serum/2 mM glutamine in 8% CO2 /humidified atmosphere at 37° C. The medium was changed twice weekly. Mature neurons (3-4 weeks) were used.
Cells were exposed to excitatory amino acids according to the method of Koh and Choi (J. Neurosci. (1988) 8:2153-2163). Before exposure, the cells were washed three times with Tris-buffered control salt solution (CSS), containing 120 mM NaCl/5.4 mM KCl/1.8 mM CaCl2 /25 mM Tris hydrochloride, pH 7.4 at room temperature/15 mM glucose. Brief exposures to glutamate, NMDA (plus 10 μM glycine), quisqualate, and sodium nitroprusside (SNP) were performed for 5 minutes in CSS. The exposure solution was then washed away and replaced by MEM with 21 mM glucose; then the cells were placed in an incubator for 20-24 hour. Long exposures to kainate were performed in MEM/21 mM glucose for 20-24 hour in the incubator. After exposure to the excitatory amino acids, the medium was replaced by CSS/0.4% trypan blue, which stains nonviable cells. Two to four photographs (10-20×) were made of each well, and viable versus nonviable cells were counted. The cytotoxicity data represent 6-24 separate wells assayed per data point, with ≈500-1500 cells counted per well. Neuronal cell injury was also assessed by measuring the release of lactate dehydrogenase by damaged or destroyed cells into the extracellular fluid following drug exposure.
Before initiating cytotoxicity experiments with NOS inhibitors, the potency of NMDA applied for 5 minutes in inducing cell death was evaluated by examining exclusion of 0.4% trypan blue by viable cells or measuring lactate dehydrogenase released by damaged or destroyed cells into the extracellular fluid.
To examine the role of NO in other forms of glutamate neurotoxicity, the effects of NO2 Arg cytotoxicity induced by quisqualate, kainate, and NMDA were compared. […] Data are means ±SEM (n=6-24). Cell death was determined by 0.4% trypan blue exclusion by viable cells.

N=C(NCCC[C@H](N)C(=O)O)N[N+](=O)[O-] [NO2 Arg, L-N^ω -nitroarginine]
pKi ([1]; Dwyer et al. (1991), read-out: Ki, inhibition of NOS activity of purified enzyme preparations): 6.70
mode of inhibition of NOS ([1]; Moore (1990)): competitive inhibitor of NOS
alterations in NOS protein [2]: No alterations in NOS protein were observed
effect of preincubation on potency of inhibition ([3]; 2 hour preincubation at 4° C., FIG. 2A): increases the potency of inhibition
nature of inhibition of cerebellar NOS in vitro ([3]; FIG. 1, before and after dialysis): irreversible inhibition
relative potency as inhibitor of NOS activity ([3]; cerebellar supernatant preparations, FIG. 1): more potent inhibitor of NOS activity than MeArg
augmentation of potency by preincubation ([3]; preincubation for 24 hours at 4° C.): about 15 times
prevention of neurotoxicity, in words [4]: prevent neurotoxicity in proportion to their relative potencies as NOS inhibitors
Cell death, % ± SEM (kainate + NO2 Arg) ([4]; 100 μM kainate +500 μM NO2 Arg): 87.0 ± 3.2%
Cell death, % ± SEM (NMDA + NO2 Arg) ([4]; 300 μM NMDA + 10 μM glycine +100 μM NO2 Arg): 17.7 ± 3.0%
Cell death, % ± SEM (NMDA + NO2 Arg + L-Arg) ([4]; 300 μM NMDA + 10 μM glycine +100 μM NO2 Arg + 1mM L-Arg): 63.4 ± 5.5%
effect on NMDA cytotoxicity (photomicrographs, FIG. 4) ([4]; 300 μM NMDA plus 10 μM glycine plus 100 NO2 Arg): inhibition of NMDA cytotoxicity
Cell death, % ± SEM (glutamate + NO2 Arg + L-Arg) ([4]; 500 μM glutamate +100 μM NO2 Arg + 1 Mm L-Arg): 48.2 ± 3.2%
Cell death, % ± SEM (glutamate + NO2 Arg) ([4]; 500 μM glutamate +100 μN NO2 Arg): 28.9 ± 6.0%
Cell death, % ± SEM (quisqualate + NO2 Arg) ([4]; 500 μM quisqualate +500 μM NO2 Arg): 51.1 ± 2.4%
Cell death, % ± SEM (quisqualate + NO2 Arg + L-Arg) ([4]; 500 μM quisqualate +500 μM NO2 Arg + mM L-Arg): 66.6 ± 5.3%
inhibition at 100 µM ([4]; Rattus norvegicus, 100 μM NO2 Arg applied simultaneously with NMDA, read-out: reduction of NMDA-induced cell death): 70%
pEC50 ([4]; Rattus norvegicus, NMDA and related excitatory amino acids, read-out: EC50 for preventing neurotoxicity elicited by N-methyl-D-aspartate): 4.70
pEC50 ([4]; Rattus norvegicus, NMDA, read-out: concentration giving 50% prevention of NMDA-induced cell death): ~4.70
protection against kainate-induced cell death ([4]; kainate): no protection against kainate-induced cell death
protection against quisqualate-induced cell death ([4]; quisqualate): A portion of cell death elicited by quisqualate is prevented; also recorded: higher concentrations of NO2 Arg are required than with NMDA toxicity
